# Source: PubChem BioAssay AID2060886 (Molecular Pharmacology Branch, DTP, NCI, 2025)
# Tested on: 653999-131-R-J2-PDC complex spheroids, growth inhibition
# Assay: Anticancer human tumor 653999-131-R-J2-PDC patient-derived lung adenocarcinoma cell line growth inhibition [RAS]
# Conditions: for IC50: curve of first compound; for viability, T/C: stronger effect = lower value
# Method in brief: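 Agents were tested in combination matrices in half-log decrements from a top concentration at or near clinical Cmax (10 microM if undetermined). Targets were multi-cell spheroids of tumour lines plus HUVEC and MSC stromal cells.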
# [1] = second compound 0.0316 µM, first compound 0.0316 µM
# [2] = second compound 0.0316 µM, first compound 0.1 µM
# [3] = second compound 0.0316 µM, first compound 0.316 µM
# [4] = second compound 0.0316 µM, first compound 1 µM
# [5] = second compound 0.0316 µM, first compound 3.16 µM
# [6] = second compound 0.0316 µM, first compound 10 µM
# [7] = second compound 0.1 µM, first compound 0.0316 µM
# [8] = second compound 0.1 µM, first compound 0.1 µM
# [9] = second compound 0.1 µM, first compound 0.316 µM
# [10] = second compound 0.1 µM, first compound 1 µM
# [11] = second compound 0.1 µM, first compound 3.16 µM
# [12] = second compound 0.1 µM, first compound 10 µM
# [13] = second compound 0.316 µM, first compound 0.0316 µM
# [14] = second compound 0.316 µM, first compound 0.1 µM
# [15] = second compound 0.316 µM, first compound 0.316 µM
# [16] = second compound 0.316 µM, first compound 1 µM
# [17] = second compound 0.316 µM, first compound 3.16 µM
# [18] = second compound 0.316 µM, first compound 10 µM
# [19] = second compound 1 µM, first compound 0.0316 µM
# [20] = second compound 1 µM, first compound 0.1 µM
# [21] = second compound 1 µM, first compound 0.316 µM
# [22] = second compound 1 µM, first compound 1 µM
# [23] = second compound 1 µM, first compound 3.16 µM
# [24] = second compound 1 µM, first compound 10 µM
# 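Further: spheroids exposed to the agents for seven days before the readout.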
compound,measurement,setting,value
C[C@@H](NC(=O)c1ncnc(N)c1Cl)c1ncc(C(=O)Nc2cc(C(F)(F)F)c(Cl)cn2)s1 + C#Cc1c(F)ccc2cc(O)cc(-c3ncc4c(N5CC6CCC(C5)N6)nc(OCC56CCCN5CC(F)C6)nc4c3F)c12,IC50,second compound 0.0316 µM,> 10 µM
same,IC50,second compound 0.1 µM,> 10 µM
same,IC50,second compound 0.316 µM,> 10 µM
same,IC50,second compound 1 µM,> 10 µM
same,IC50,second compound 3.16 µM,< 0.0316 µM
same,IC50,second compound 10 µM,< 0.0316 µM
same,"viability, T/C",[1],102%
same,"viability, T/C",[2],109%
same,"viability, T/C",[3],102%
same,"viability, T/C",[4],100%
same,"viability, T/C",[5],100%
same,"viability, T/C",[6],73.5%
same,"viability, T/C",[7],91%
same,"viability, T/C",[8],91.6%
same,"viability, T/C",[9],90%
same,"viability, T/C",[10],78.3%
same,"viability, T/C",[11],71%
same,"viability, T/C",[12],77.2%
same,"viability, T/C",[13],77.2%
same,"viability, T/C",[14],75%
same,"viability, T/C",[15],87.8%
same,"viability, T/C",[16],75%
same,"viability, T/C",[17],88.3%
same,"viability, T/C",[18],69.1%
same,"viability, T/C",[19],44.5%
same,"viability, T/C",[20],68.3%
same,"viability, T/C",[21],72.5%
same,"viability, T/C",[22],44.6%
same,"viability, T/C",[23],60.1%
same,"viability, T/C",[24],54.7%
same,"viability, T/C","second compound 3.16 µM, first compound 0.0316 µM",40.3%
same,"viability, T/C","second compound 3.16 µM, first compound 0.1 µM",39.7%
same,"viability, T/C","second compound 3.16 µM, first compound 0.316 µM",37%
same,"viability, T/C","second compound 3.16 µM, first compound 1 µM",44.9%
same,"viability, T/C","second compound 3.16 µM, first compound 3.16 µM",51.5%
same,"viability, T/C","second compound 3.16 µM, first compound 10 µM",41.8%
same,"viability, T/C","second compound 10 µM, first compound 0.0316 µM",22%
same,"viability, T/C","second compound 10 µM, first compound 0.1 µM",21.2%
same,"viability, T/C","second compound 10 µM, first compound 0.316 µM",49.3%
same,"viability, T/C","second compound 10 µM, first compound 1 µM",45.9%
same,"viability, T/C","second compound 10 µM, first compound 3.16 µM",30.5%
same,"viability, T/C","second compound 10 µM, first compound 10 µM",22%
C[C@@H](NC(=O)c1ncnc(N)c1Cl)c1ncc(C(=O)Nc2cc(C(F)(F)F)c(Cl)cn2)s1 + C=CC(=O)N1CCN(c2nc(OCC3CCCN3C)nc3c(F)c(-c4nc(N)cc(C)c4C(F)(F)F)c(Cl)cc23)C(C)C1,IC50,second compound 0.00316 µM,> 10 µM
same,IC50,second compound 0.01 µM,> 10 µM
same,IC50,second compound 0.0316 µM,> 10 µM
same,IC50,second compound 0.1 µM,> 10 µM
same,IC50,second compound 0.316 µM,> 10 µM
same,IC50,second compound 1 µM,> 10 µM
same,"viability, T/C","second compound 0.00316 µM, first compound 0.0316 µM",120%
same,"viability, T/C","second compound 0.00316 µM, first compound 0.1 µM",85%
same,"viability, T/C","second compound 0.00316 µM, first compound 0.316 µM",101%
same,"viability, T/C","second compound 0.00316 µM, first compound 1 µM",81%
same,"viability, T/C","second compound 0.00316 µM, first compound 3.16 µM",88.5%
same,"viability, T/C","second compound 0.00316 µM, first compound 10 µM",81%
same,"viability, T/C","second compound 0.01 µM, first compound 0.0316 µM",127%
same,"viability, T/C","second compound 0.01 µM, first compound 0.1 µM",108%
same,"viability, T/C","second compound 0.01 µM, first compound 0.316 µM",89%
same,"viability, T/C","second compound 0.01 µM, first compound 1 µM",93.5%
same,"viability, T/C","second compound 0.01 µM, first compound 3.16 µM",98%
same,"viability, T/C","second compound 0.01 µM, first compound 10 µM",71.3%
same,"viability, T/C",[1],116%
same,"viability, T/C",[2],90.3%
same,"viability, T/C",[3],93.5%
same,"viability, T/C",[4],89.9%
same,"viability, T/C",[5],84.3%
same,"viability, T/C",[6],73.2%
same,"viability, T/C",[7],105%
same,"viability, T/C",[8],95.2%
same,"viability, T/C",[9],101%
same,"viability, T/C",[10],94.3%
same,"viability, T/C",[11],89.5%
same,"viability, T/C",[12],84.2%
same,"viability, T/C",[13],107%
same,"viability, T/C",[14],96.1%
same,"viability, T/C",[15],110%
same,"viability, T/C",[16],97.6%
same,"viability, T/C",[17],85.1%
same,"viability, T/C",[18],86.1%
same,"viability, T/C",[19],90.9%
same,"viability, T/C",[20],96.7%
same,"viability, T/C",[21],104%
same,"viability, T/C",[22],99.5%
same,"viability, T/C",[23],87.5%
same,"viability, T/C",[24],82.2%
NC1c2ccccc2OC12CCN(c1cnc3c(N4CCCc5ncccc54)n[nH]c3n1)CC2 (stereo unspecified) + CCn1c(-c2cccnc2C(C)OC)c2c3cc(ccc31)N1CCOC(CC(NC(=O)C(C(C)C)N(C)C(=O)C3(F)CCN(C(=O)C#CC(C)(C)N(C)C)CC3)C(=O)N3CCCC(N3)C(=O)OCC(C)(C)C2)C1,IC50,second compound 0.000949 µM,> 10 µM
same,IC50,second compound 0.003 µM,> 10 µM
same,IC50,second compound 0.00949 µM,> 10 µM
same,IC50,second compound 0.03 µM,> 10 µM
same,IC50,second compound 0.0949 µM,> 10 µM
same,IC50,second compound 0.3 µM,> 10 µM
same,"viability, T/C","second compound 0.000949 µM, first compound 0.0316 µM",74.6%
same,"viability, T/C","second compound 0.000949 µM, first compound 0.1 µM",75.4%
same,"viability, T/C","second compound 0.000949 µM, first compound 0.316 µM",82.6%
same,"viability, T/C","second compound 0.000949 µM, first compound 1 µM",71.6%
same,"viability, T/C","second compound 0.000949 µM, first compound 3.16 µM",71.9%
same,"viability, T/C","second compound 0.000949 µM, first compound 10 µM",85.5%
same,"viability, T/C","second compound 0.003 µM, first compound 0.0316 µM",83.4%
same,"viability, T/C","second compound 0.003 µM, first compound 0.1 µM",83.3%
same,"viability, T/C","second compound 0.003 µM, first compound 0.316 µM",75.5%
same,"viability, T/C","second compound 0.003 µM, first compound 1 µM",67%
same,"viability, T/C","second compound 0.003 µM, first compound 3.16 µM",75.8%
same,"viability, T/C","second compound 0.003 µM, first compound 10 µM",77.5%
same,"viability, T/C","second compound 0.00949 µM, first compound 0.0316 µM",70.3%
same,"viability, T/C","second compound 0.00949 µM, first compound 0.1 µM",82.2%
same,"viability, T/C","second compound 0.00949 µM, first compound 0.316 µM",67.6%
same,"viability, T/C","second compound 0.00949 µM, first compound 1 µM",76.2%
same,"viability, T/C","second compound 0.00949 µM, first compound 3.16 µM",72.3%
same,"viability, T/C","second compound 0.00949 µM, first compound 10 µM",65.3%
same,"viability, T/C","second compound 0.03 µM, first compound 0.0316 µM",68.9%
same,"viability, T/C","second compound 0.03 µM, first compound 0.1 µM",66.2%
same,"viability, T/C","second compound 0.03 µM, first compound 0.316 µM",64.1%
same,"viability, T/C","second compound 0.03 µM, first compound 1 µM",72%
same,"viability, T/C","second compound 0.03 µM, first compound 3.16 µM",76.2%
same,"viability, T/C","second compound 0.03 µM, first compound 10 µM",67.7%
same,"viability, T/C","second compound 0.0949 µM, first compound 0.0316 µM",78.6%
same,"viability, T/C","second compound 0.0949 µM, first compound 0.1 µM",71.4%
same,"viability, T/C","second compound 0.0949 µM, first compound 0.316 µM",73.5%
same,"viability, T/C","second compound 0.0949 µM, first compound 1 µM",71.9%
same,"viability, T/C","second compound 0.0949 µM, first compound 3.16 µM",72.1%
same,"viability, T/C","second compound 0.0949 µM, first compound 10 µM",73.5%
same,"viability, T/C","second compound 0.3 µM, first compound 0.0316 µM",83.8%
same,"viability, T/C","second compound 0.3 µM, first compound 0.1 µM",72.2%
same,"viability, T/C","second compound 0.3 µM, first compound 0.316 µM",87.3%
same,"viability, T/C","second compound 0.3 µM, first compound 1 µM",79.6%
same,"viability, T/C","second compound 0.3 µM, first compound 3.16 µM",70%
same,"viability, T/C","second compound 0.3 µM, first compound 10 µM",71.7%
